According to patent publication US20090203737A1, “Pyrrole Derivatives as Positive Allosteric Modulators of Metabotropic Receptors” (priority 2005, published 2009):

Experiments:
[1] = target: T1, rat mGluR5 receptor (Rattus norvegicus, UniProt P31424); assay: mGluR5 assay on HEK-expressing rat mGluR5 (fluorescent cell based Ca2+ mobilization assay); details: HEK-293 cells stably expressing rat mGluR5; no co-addition of glutamate; mean of at least three independent experiments in duplicate; read-out: Ca++ Flux (mean EC50)
T1 construct: expressed in transfected cells
Experimental: Positive functional expression of HEK-293 cells stably expressing rat mGluR5 receptor was determined by measuring intracellular Ca^2+ changes using a Fluorometric Imaging Plate Reader (FLIPR, Molecular Devices, Sunnyvale, Calif.) in response to glutamate or selective known mGluR5 agonists and antagonists. Rat mGluR5 RT-PCR products in HEK-293 cells were sequenced and found 100% identical to rat mGluR5 Genbank reference sequence (NM_017012). HEK-293 cells expressing rmGluR5 were maintained in media containing DMEM, dialyzed Fetal Bovine Serum (10%), Glutamax™ (2 mM), Penicillin (100 units/ml), Streptomycin (100 μg/ml), Geneticin (100 μg/ml) and Hygromycin-B (40 μg/ml) at 37° C./5% CO2.
After one day of incubation, cells were washed with assay buffer containing: 142 mM NaCl, 6 mM KCl, 1 mM […], 1 mM CaCl2, 20 mM HEPES, 1 g/L glucose, 0.125 mM sulfinpyrazone, pH 7.4. After 60 min of loading with 4 uM Fluo-4 (TefLabs, Austin, Tex.), the cells were washed three times with 50 μl of PBS Buffer and resuspended in 45 μl of assay Buffer. The plates were then transferred to a Fluorometric Imaging Plate Reader (FLIPR, Molecular Devices, Sunnyvale, Calif.) for the assessment of intracellular calcium flux. After monitoring the baseline fluorescence for 10 seconds, increasing concentrations of representative compound (from 0.01 to 60 μM) of the present invention diluted in Assay Buffer (15 μl of 4× dilutions) was added to the cell. The final DMSO concentration in the assay was 0.3%. In each experiment, fluorescence was then monitored as a function of time for 3 minutes and the data analyzed using Microsoft Excel and GraphPad Prism. Each data point was also measured two times.
Under these experimental conditions, this HEK-rat mGluR5 cell line is able to directly detect positive allosteric modulators without the need of co-addition of glutamate or mGluR5 agonist.
The concentration-response curves of representative compounds of the present invention were generated using the Prism GraphPad software (Graph Pad Inc, San Diego, USA). The curves were fitted to a four-parameter logistic equation:
(Y=Bottom+(Top−Bottom)/(1+10̂((LogEC50−X)*Hill Slope)
allowing determination of EC50 values.
The Table 1 below represents the mean EC50 obtained from at least three independent experiments of selected molecules performed in duplicate.

T1 sequence (P31424 21-1171 isoform P31424-2 limits assumed): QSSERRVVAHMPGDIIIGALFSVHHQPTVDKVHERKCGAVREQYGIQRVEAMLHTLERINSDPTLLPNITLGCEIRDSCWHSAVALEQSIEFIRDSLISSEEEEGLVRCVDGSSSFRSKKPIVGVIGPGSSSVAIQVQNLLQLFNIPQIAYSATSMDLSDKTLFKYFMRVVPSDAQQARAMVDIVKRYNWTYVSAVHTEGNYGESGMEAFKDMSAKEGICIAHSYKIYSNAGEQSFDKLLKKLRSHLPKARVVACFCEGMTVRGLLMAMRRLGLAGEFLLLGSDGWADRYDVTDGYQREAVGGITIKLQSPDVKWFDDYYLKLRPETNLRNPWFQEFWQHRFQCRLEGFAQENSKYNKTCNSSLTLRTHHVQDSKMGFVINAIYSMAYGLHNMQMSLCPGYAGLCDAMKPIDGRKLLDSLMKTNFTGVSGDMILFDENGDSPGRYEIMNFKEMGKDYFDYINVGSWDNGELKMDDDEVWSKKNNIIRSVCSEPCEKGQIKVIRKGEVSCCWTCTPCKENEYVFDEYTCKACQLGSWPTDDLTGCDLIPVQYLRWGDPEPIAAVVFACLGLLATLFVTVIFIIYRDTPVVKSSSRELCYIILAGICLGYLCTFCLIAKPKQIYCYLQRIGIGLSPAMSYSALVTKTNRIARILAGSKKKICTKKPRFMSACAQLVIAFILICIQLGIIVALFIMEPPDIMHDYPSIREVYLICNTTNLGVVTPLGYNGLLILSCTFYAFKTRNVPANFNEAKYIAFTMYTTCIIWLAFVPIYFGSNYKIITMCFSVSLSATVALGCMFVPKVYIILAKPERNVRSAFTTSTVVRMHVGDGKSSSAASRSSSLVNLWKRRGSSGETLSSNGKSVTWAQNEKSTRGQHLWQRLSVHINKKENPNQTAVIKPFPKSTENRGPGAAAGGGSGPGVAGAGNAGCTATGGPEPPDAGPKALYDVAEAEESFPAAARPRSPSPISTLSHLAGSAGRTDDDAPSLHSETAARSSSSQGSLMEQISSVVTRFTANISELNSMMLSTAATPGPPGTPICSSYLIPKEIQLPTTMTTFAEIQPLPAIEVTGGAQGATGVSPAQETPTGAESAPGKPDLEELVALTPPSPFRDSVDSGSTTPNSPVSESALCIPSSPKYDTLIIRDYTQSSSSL

Structure (SMILES) | EC50 [1] | melting point
O=C(c1ccc(F)cc1)N1CCC[C@H](c2nc(-c3cc(F)c[nH]3)no2)C1 [Example 50, (4-Fluoro-phenyl)-{(S)-3-[3-(4-fluoro-1H-pyrrol-2-yl)-[1,2,4]oxadiazol-5-yl]-piperidin-1-yl}-methanone] | < 1000 nM | 146.5 to 147.2 °C
O=C(c1ccc(F)nc1)N1CCCC(c2noc(-c3ccc[nH]3)n2)C1 (centres unmarked) [Example 8, (6-Fluoro-pyridin-3-yl)-{3-[5-(1H-pyrrol-2-yl)-[1,2,4]oxadiazol-3-yl]-piperidin-1-yl}-methanone] | 1000 to 10000 nM | 143 °C
Cc1cc(F)ccc1C(=O)N1CCCC(c2noc(-c3ccc[nH]3)n2)C1 (centres unmarked) [Example 9, (4-Fluoro-2-methyl-phenyl)-{3-[5-(1H-pyrrol-2-yl)-[1,2,4]oxadiazol-3-yl]-piperidin-1-yl}-methanone] | 1000 to 10000 nM | 203 °C
O=C(c1ccc(F)c(F)c1)N1CCC[C@H](c2noc(-c3ccc[nH]3)n2)C1 [Example 10, (3,4-Difluoro-phenyl)-{(S)-3-[5-(1H-pyrrol-2-yl)-[1,2,4]oxadiazol-3-yl]-piperidin-1-yl}-methanone] | < 1000 nM | 168 °C
Cc1c[nH]c(-c2noc([C@H]3CCCN(C(=O)c4ccc(F)c(F)c4)C3)n2)c1 [Example 32, (3,4-Difluoro-phenyl)-{(S)-3-[3-(4-methyl-1H-pyrrol-2-yl)-[1,2,4]oxadiazol-5-yl]-piperidin-1-yl}-methanone] | < 1000 nM | 166 to 167 °C
Cc1oncc1C(=O)N1CCC[C@H](c2nc(-c3ccc[nH]3)no2)C1 [Example 20, (5-Methyl-isoxazol-4-yl)-{(S)-3-[3-(1H-pyrrol-2-yl)-[1,2,4]oxadiazol-5-yl]-piperidin-1-yl}-methanone] | > 10000 nM | 125 to 127 °C
O=C(c1ccc(F)cc1)N1CCC[C@H](c2noc(-c3cc(C(F)(F)F)c[nH]3)n2)C1 [Example 76, (4-Fluoro-phenyl)-{(S)-3-[5-(4-trifluoromethyl-1H-pyrrol-2-yl)-[1,2,4]oxadiazol-3-yl]-piperidin-1-yl}-methanone] | > 10000 nM | 183.5 °C
O=C(c1ccc(F)nc1)N1CCCC(c2noc(-c3cc4ccccc4[nH]3)n2)C1 (centres unmarked) [Example 23, (6-Fluoro-pyridin-3-yl)-{3-[5-(1H-indol-2-yl)-[1,2,4]oxadiazol-3-yl]-piperidin-1-yl}-methanone] | 1000 to 10000 nM | 163.1 to 164.3 °C
O=C(c1ccc(F)cc1)N1CCCC(F)(c2nc(-c3ccc[nH]3)no2)C1 (centres unmarked) [Example 47, (4-Fluoro-phenyl)-{3-fluoro-3-[3-(1H-pyrrol-2-yl)-[1,2,4]oxadiazol-5-yl]-piperidin-1-yl}-methanone] | 1000 to 10000 nM | 114.8 to 118 °C
Cc1c[nH]c(-c2noc([C@H]3CCCN(C(=O)c4ccc(F)cc4)C3)n2)c1 [Example 31, (4-Fluoro-phenyl)-{(S)-3-[3-(4-methyl-1H-pyrrol-2-yl)-[1,2,4]oxadiazol-5-yl]-piperidin-1-yl}-methanone] | < 1000 nM | 188 to 190 °C
O=C(c1ccc(F)nc1)N1CCC[C@H](c2noc(-c3cc(C(F)(F)F)c[nH]3)n2)C1 [Example 78, (6-Fluoro-pyridin-3-yl)-{(S)-3-[5-(4-trifluoromethyl-1H-pyrrol-2-yl)-[1,2,4]oxadiazol-3-yl]-piperidin-1-yl}-methanone] | – | 165.7 °C
O=C(c1ccc(F)cc1)N1CCCC(c2noc(-c3ccc[nH]3)n2)C1 (centres unmarked) [Example 7, (4-Fluoro-phenyl)-{3-[5-(1H-pyrrol-2-yl)-[1,2,4]oxadiazol-3-yl]-piperidin-1-yl}-methanone] | < 1000 nM | 158 °C
O=C(c1ccc(F)nc1)N1CCC[C@H](c2noc(-c3ccc[nH]3)n2)C1 [Example 21, (6-Fluoro-pyridin-3-yl)-{(S)-3-[5-(1H-pyrrol-2-yl)-[1,2,4]oxadiazol-3-yl]-piperidin-1-yl}-methanone] | < 1000 nM | 147 °C
O=C(c1ccc(F)c(F)c1)N1CCC[C@H](c2nc(-c3cc4ccccc4[nH]3)no2)C1 [Example 15, (3,4-Difluoro-phenyl)-{(S)-3-[3-(1H-indol-2-yl)-[1,2,4]oxadiazol-5-yl]-piperidin-1-yl}-methanone] | > 10000 nM | 93 to 94 °C
O=C(c1ccc(F)c(F)c1)N1CCC[C@H](c2nc(-c3cc(F)c[nH]3)no2)C1 [Example 51, (3,4-Difluoro-phenyl)-{(S)-3-[3-(4-fluoro-1H-pyrrol-2-yl)-[1,2,4]oxadiazol-5-yl]-piperidin-1-yl}-methanone] | < 1000 nM | 147.5 to 148.2 °C
O=C(c1ccc(F)cc1)N1CCC[C@@H](c2nc(-c3ccc[nH]3)no2)C1 [Example 37, (4-Fluoro-phenyl)-{(R)-3-[3-(1H-pyrrol-2-yl)-[1,2,4]oxadiazol-5-yl]-piperidin-1-yl}-methanone] | 1000 to 10000 nM | 132 to 133 °C
O=C(c1ccc(F)c(F)c1)N1CCCC(c2noc(-c3ncc[nH]3)n2)C1 (centres unmarked) [Example 18, (3,4-Difluoro-phenyl)-{3-[5-(1H-imidazol-2-yl)-[1,2,4]oxadiazol-3-yl]-piperidin-1-yl}-methanone] | 1000 to 10000 nM | 148.5 to 148.9 °C
O=C(c1ccc(F)cc1)N1CCC[C@H](c2nc(-c3ncc[nH]3)no2)C1 [Example 24, (4-Fluoro-phenyl)-{(S)-3-[3-(1H-imidazol-2-yl)-[1,2,4]oxadiazol-5-yl]-piperidin-1-yl}-methanone] | 1000 to 10000 nM | –
Cc1c[nH]c(-c2noc([C@H]3CCCN(C(=O)c4ccc(F)c(F)c4)C3)n2)n1 [Example 79, (3,4-Difluoro-phenyl)-{(S)-3-[3-(4-methyl-1H-imidazol-2-yl)-[1,2,4]oxadiazol-5-yl]-piperidin-1-yl}-methanone] | 1000 to 10000 nM | –
O=C(c1ccc(F)cc1)N1CCCC(c2noc(-c3ncc[nH]3)n2)C1 (centres unmarked) [Example 17, (4-Fluoro-phenyl)-{3-[5-(1H-imidazol-2-yl)-[1,2,4]oxadiazol-3-yl]-piperidin-1-yl}-methanone] | 1000 to 10000 nM | –
O=C(c1ccnc(F)c1)N1CCC[C@H](c2noc(-c3cc(Cl)c[nH]3)n2)C1 [Example 41, {(S)-3-[5-(4-Chloro-1H-pyrrol-2-yl)-[1,2,4]oxadiazol-3-yl]-piperidin-1-yl}-(2-fluoro-pyridin-4-yl)-methanone] | < 1000 nM | –
Cc1c[nH]c(-c2nc([C@H]3CCCN(C(=O)c4ccnc(F)c4)C3)no2)c1 [Example 30, (2-Fluoro-pyridin-4-yl)-{(S)-3-[5-(4-methyl-1H-pyrrol-2-yl)-[1,2,4]oxadiazol-3-yl]-piperidin-1-yl}-methanone] | < 1000 nM | –
Cc1c[nH]c(-c2noc([C@H]3CCCN(C(=O)c4ccc(F)nc4)C3)n2)c1 [Example 33, (6-Fluoro-pyridin-3-yl)-{(S)-3-[3-(4-methyl-1H-pyrrol-2-yl)-[1,2,4]oxadiazol-5-yl]-piperidin-1-yl}-methanone] | < 1000 nM | –
O=C(c1ccc(F)cc1F)N1CCC[C@H](c2nc(-c3cc4ccccc4[nH]3)no2)C1 [Example 12, (2,4-Difluoro-phenyl)-{(S)-3-[3-(1H-indol-2-yl)-[1,2,4]oxadiazol-5-yl]-piperidin-1-yl}-methanone] | 1000 to 10000 nM | –
Cc1c[nH]c(-c2nc([C@H]3CCCN(C(=O)c4cnoc4C)C3)no2)c1 [Example 29, (5-Methyl-isoxazol-4-yl)-{(S)-3-[5-(4-methyl-1H-pyrrol-2-yl)-[1,2,4]oxadiazol-3-yl]-piperidin-1-yl}-methanone] | < 1000 nM | –
Cc1oncc1C(=O)N1CCC[C@H](c2nc(-c3cc(Cl)c[nH]3)no2)C1 [Example 68, {(S)-3-[3-(4-Chloro-1H-pyrrol-2-yl)-[1,2,4]oxadiazol-5-yl]-piperidin-1-yl}-(5-methyl-isoxazol-4-yl)-methanone] | 1000 to 10000 nM | –
O=C(c1ccc(F)cc1F)N1CCC[C@H](c2nc(-c3ccc[nH]3)no2)C1 [Example 2, (2,4-Difluoro-phenyl)-((S)-3-[3-(1H-pyrrol-2-yl)-[1,2,4]oxadiazol-5-yl]-piperidin-1-yl)-methanone] | < 1000 nM | –
O=C(c1ccc(F)cc1)N1CCC[C@H](c2noc(-c3cc(Cl)c[nH]3)n2)C1 [Example 39, {(S)-3-[5-(4-Chloro-1H-pyrrol-2-yl)-[1,2,4]oxadiazol-3-yl]-piperidin-1-yl}-(4-fluoro-phenyl)-methanone] | < 1000 nM | –
